PMC5503984, “Characterisation of preproendothelin-1 derived peptides identifies Endothelin-Like Domain Peptide as a modulator of Endothelin-1” (Scientific Reports, 2017)

Assay: RP-HPLC elution position of synthetic proET-1 peptides
Format: physicochemical
Conditions: ACE-5 C4 300 Å, 5 µm, 4.6 × 250 mm, 1 ml/min, 0.1% TFA – 10% solvent B (80% CH3CN with 0.1% TFA) over 2 min, then 10–30% B over 50 min, 1 min fractions, absorbance at 280 nm and immunoassay
Method: Figure 2 Size exclusion chromatography of peptide precipitates from (A) EA.hy 926 and (B) A549 cell lines, (C) cation exchange chromatography of conditioned media from EA.hy 926, and HPLC characterisation of pro-ET-1 peptides from EA.hy 926 cells – (D) NT-proET-1, (E) ELDP and (F) CT-proET-1. (A) and (B) proendothelin-1 peptides from EA.hy 926 and A549 cell lines were subjected to size exclusion chromatography (column 1.6 × 100 cm, Sephadex G50 superfine) equilibrated at 4 °C with 0.1 M NaCl containing 0.01 M HCl. Fractions were subjected to immunoassay for ppET-1[42–50] (open circles) and ppET-1[93–102] (closed circles). Elution positions of adrenomedullin (ADM, M r 6029), big ET-1 (bET-1, M r 4283) and ET-1 (M r 2492) are indicated. […] ELDP (red columns) and CT-proET-1 (blue columns) were measured using immunoassays. […]
ProET-1 peptides were subjected to reverse phase HPLC on C4 silica (15 µm, 300 Å pore, 1 × 25 cm; Jupiter® Phenomenex) with gradient elution at 2 ml/min: 0.1% TFA – 15% solvent B (80% CH3CN with 0.1% TFA) over 2 min, followed by 15–60% B over 45 min. […] Synthetic peptides were used to characterise elution positions of NT-proET-1, ELDP and CT-proET-1 on this second HPLC system by monitoring absorbance at 280 nm and immunoassay of fractions. […]

ALENLLPTKATDRENRCQCASQKDKKCWNFCQAGKELRAEDIMEKDWNNHKKGKDCSKLGKKCIYQQLVRGRKI (disulfide (positions not given here)) [ELDP]
elution position on RP-HPLC (fraction number): 45 fraction
